Data: US10059713B2 (Takeda Pharmaceutical Company Limited, priority 2014, dated 2018)

Target: human GPR43 (Homo sapiens (Human), UniProt O15552)
Assay: Ca-Flux functional assay: determination of agonist/positive allosteric modulator (PAM) activity
Format: cell-based
Details: CHO-K1 Gα16 cells stably expressing human GPR43; compound added with EC20 sodium acetate; intracellular Ca2+ by FLIPR; does not distinguish agonist from PAM
Description: Ca-Flux Functional Assay: Determination of Agonist/Positive Allosteric Modulator (PAM) Activity
GPR43 agonist/PAM activity was determined by measuring changes in intracellular calcium levels using a Ca^2+ sensitive fluorescent dye. The changes in fluorescent signal were monitored by FLIPR (manufactured by Molecular Devices). GPR43 mediated increases in intracellular Ca^2+ concentration were readily detected upon activation with sodium acetate. Prior to the assay (24 hours), CHO-K1 Gα16 cells stably expressing human GPR43 were-seeded in cell culture medium in black, clear-bottom 384-well plates (Corning Inc) and grown overnight at 37° C., 5% CO2. On the day of the assay, cell culture media was removed and cells were loaded with Calcium 5 Dye (Molecular Devices) diluted in HBSS containing 25 mM HEPES, 2.5 mM Probenecid, 0.1% BSA for 1 hour at 37° C., 5% CO2. 10 point half log concentration response curves of sodium acetate from 10 mM were conducted prior to the testing of compounds to calculate the sodium acetate concentration that produces 20% of the maximal response (EC20). Test compounds (at 10 point half log concentration response curves from 10 μM) were added in the presence of sodium acetate to achieve a final concentration that produces approximately 20% maximal response as calculated from the previous experiment. The changes in fluorescent signal were monitored by FLIPR upon addition of the compound/EC20 sodium acetate mix. The EC50 values were determined from ten point concentration response curves. Curves were generated using the average of two wells for each data point.
The above assay detects both GPR43 receptor agonists and positive allosteric modulators of the GPR43 receptor, without distinguishing between the two. Activity in either regard is useful in the treatment of conditions associated with GPR43 receptor activity.

human GPR43, sequence (O15552 whole entry): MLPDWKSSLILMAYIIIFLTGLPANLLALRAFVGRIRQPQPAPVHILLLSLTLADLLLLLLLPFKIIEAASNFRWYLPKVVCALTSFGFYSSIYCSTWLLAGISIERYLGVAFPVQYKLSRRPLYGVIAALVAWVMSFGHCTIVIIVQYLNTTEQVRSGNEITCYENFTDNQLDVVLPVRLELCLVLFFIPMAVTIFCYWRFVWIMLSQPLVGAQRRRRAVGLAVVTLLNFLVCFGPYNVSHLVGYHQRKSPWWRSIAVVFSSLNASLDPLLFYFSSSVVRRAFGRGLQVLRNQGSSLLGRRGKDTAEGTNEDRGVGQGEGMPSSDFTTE

| SMILES | EC50 [nM] |
| --- | --- |
| Nc1[nH]c2c(N3CCCC3)ncnc2c1S(=O)(=O)c1ccccc1 [Example 31, 7-(benzenesulfonyl)-4-(pyrrolidin-1-yl)-5H-pyrrolo[3,2-d]pyrimidin-6-amine] | 720 |
| COC[C@H]1CCCN1c1ncnc2c(S(=O)(=O)c3ccccc3)c(N)[nH]c12 [Example 118, 7-(benzenesulfonyl)-4-[(2R)-2-(methoxymethyl)pyrrolidin-1-yl]-5H-pyrrolo[3,2-d]pyrimidin-6-amine] | 5180 |
| Cc1ccccc1-c1ncnc2c(S(=O)(=O)c3ccccc3)c(N)[nH]c12 [Example 108, 7-(benzenesulfonyl)-4-(2-methylphenyl)-5H-pyrrolo[3,2-d]pyrimidin-6-amine] | 92 |
| Cc1nc(OC2CCC2)c2[nH]c(N)c(S(=O)(=O)c3ccccc3)c2n1 [Example 252, 7-(benzenesulfonyl)-4-cyclobutoxy-2-methyl-5H-pyrrolo[3,2-d]pyrimidin-6-amine] | 67 |
| CC1CN(c2ncnc3c(S(=O)(=O)c4ccc(C(F)(F)F)cc4)c(N)[nH]c23)CCO1 (stereo not shown) [Example 136, 4-(2-methylmorpholin-4-yl)-7-[4-(trifluoromethyl)benzenesulfonyl]-5H-pyrrolo[3,2-d]pyrimidin-6-amine] | 118 |
| Nc1[nH]c2c(C3CCCCC3)ncnc2c1S(=O)(=O)c1ccc(F)c(F)c1 [Example 60, 4-cyclohexyl-7-(3,4-difluorobenzenesulfonyl)-5H-pyrrolo[3,2-d]pyrimidin-6-amine] | 182 |
| Cc1nc(OCC2CC2)c2[nH]c(N)c(S(=O)(=O)c3cccc(F)c3)c2n1 [Example 194, 4-(cyclopropylmethoxy)-7-(3-fluorobenzenesulfonyl)-2-methyl-5H-pyrrolo[3,2-d]pyrimidin-6-amine] | 475 |
| CN(CC1CCCCO1)c1ncnc2c(S(=O)(=O)c3ccccc3)c(N)[nH]c12 (stereo not shown) [Example 91, 7-(benzenesulfonyl)-4-N-methyl-4-N-(oxan-2-ylmethyl)-5H-pyrrolo[3,2-d]pyrimidine diamine] | 1400 |
| Nc1[nH]c2c(C3CCCCC3)nncc2c1S(=O)(=O)c1ccccc1 [Example 228, 3-(benzenesulfonyl)-7-cyclohexyl-1H-pyrrolo[2,3-d]pyridazin-2-amine] | 256 |
| Cc1csc(COc2ncnc3c(S(=O)(=O)c4ccccc4)c(N)[nH]c23)n1 [Example 161, 7-(benzenesulfonyl)-4-[(4-methyl-1,3-thiazol-2-yl)methoxy]-5H-pyrrolo[3,2-d]pyrimidin-6-amine] | 1400 |
| Cc1cccc(S(=O)(=O)c2c(N)[nH]c3c(N4CCOC(C)C4)ncnc23)c1 (stereo not shown) [Example 121, 7-(3-methylbenzenesulfonyl)-4-(2-methylmorpholin-4-yl)-5H-pyrrolo[3,2-d]pyrimidin-6-amine] | 67 |
| COC1CCCN(c2ncnc3c(S(=O)(=O)c4ccccc4)c(N)[nH]c23)C1 (stereo not shown) [Example 105, 7-(benzenesulfonyl)-4-(3-methoxypiperidin-1-yl)-5H-pyrrolo[3,2-d]pyrimidin-6-amine] | 207 |
| Nc1[nH]c2c(N3CC4CCC(C3)O4)ncnc2c1S(=O)(=O)c1ccccc1 [Example 132, 7-(benzenesulfonyl)-4-{8-oxa-3-azabicyclo[3.2.1]octan-3-yl}-5H-pyrrolo[3,2-d]pyrimidin-6-amine] | 1510 |
| Nc1[nH]c2c(C3=CCCCC3)ncnc2c1S(=O)(=O)c1ccc(F)cc1 [Example 26, 4-(cyclohex-1-en-1-yl)-7-[(4-fluorobenzene)sulfonyl]-5H-pyrrolo[3,2-d]pyrimidin-6-amine] | 46 |

Compounds with a lower EC50, results first:

| EC50 [nM] | SMILES |
| --- | --- |
| 3 | Cc1nc(N2CCOC(C)(C)C2)c2[nH]c(N)c(S(=O)(=O)c3cccc(F)c3F)c2n1 [Example 280, 7-(2,3-difluorobenzenesulfonyl)-4-(2,2-dimethylmorpholin-4-yl)-2-methyl-5H-pyrrolo[3,2-d]pyrimidin-6-amine] |
| 43 | CC1CN(c2ncnc3c(S(=O)(=O)c4ccccc4)c(N)[nH]c23)CCO1 (stereo not shown) [Example 52, 7-(benzenesulfonyl)-4-(2-methylmorpholin-4-yl)-5H-pyrrolo[3,2-d]pyrimidin-6-amine] |
| 18 | CC1(C)CCCN1c1ncnc2c(S(=O)(=O)c3ccccc3)c(N)[nH]c12 [Example 56, 7-(benzenesulfonyl)-4-(2,2-dimethylpyrrolidin-1-yl)-5H-pyrrolo[3,2-d]pyrimidin-6-amine] |
| 6 | Cc1nc(N2CCOC(C)C2)c2[nH]c(N)c(S(=O)(=O)c3cccc(F)c3F)c2n1 (stereo not shown) [Example 182, 7-(2,3-difluorobenzenesulfonyl)-2-methyl-4-(2-methylmorpholin-4-yl)-5H-pyrrolo[3,2-d]pyrimidin-6-amine] |
| 29 | CC1(C)CN(c2ncnc3c(S(=O)(=O)c4ccccc4)c(N)[nH]c23)CCO1 [Example 84, 7-(benzenesulfonyl)-4-(2,2-dimethylmorpholin-4-yl)-5H-pyrrolo[3,2-d]pyrimidin-6-amine] |
| 34 | C[C@@H]1CN(c2ncnc3c(S(=O)(=O)c4ccccc4)c(N)[nH]c23)C[C@@H](C)O1 [Example 87, 7-(benzenesulfonyl)-4-[(2R,6R)-2,6-dimethylmorpholin-4-yl]-5H-pyrrolo[3,2-d]pyrimidin-6-amine] |
| 4 | Cc1nc(N2CCOC(C)(C)C2)c2[nH]c(N)c(S(=O)(=O)c3ccc(Cl)cc3F)c2n1 [Example 279, 7-(4-chloro-2-fluorobenzenesulfonyl)-4-(2,2-dimethylmorpholin-4-yl)-2-methyl-5H-pyrrolo[3,2-d]pyrimidin-6-amine] |
| 25 | CC(Oc1ncnc2c(S(=O)(=O)c3ccccc3)c(N)[nH]c12)c1ccccc1 (stereo not shown) [Example 164, 7-(benzenesulfonyl)-4-(1-phenylethoxy)-5H-pyrrolo[3,2-d]pyrimidin-6-amine] |
| 15 | COc1ccc(S(=O)(=O)c2c(N)[nH]c3c(N4CCOC(C)(C)C4)nc(C)nc23)cc1 [Example 204, 4-(2,2-dimethylmorpholin-4-yl)-7-(4-methoxybenzenesulfonyl)-2-methyl-5H-pyrrolo[3,2-d]pyrimidin-6-amine] |
| 11 | Nc1[nH]c2c(C3CCCCC3)ncnc2c1S(=O)(=O)c1ccccc1F [Example 89, 4-cyclohexyl-7-(2-fluorobenzenesulfonyl)-5H-pyrrolo[3,2-d]pyrimidin-6-amine] |
| 5 | Cc1nc(N2C[C@@H](C)O[C@@H](C)C2)c2[nH]c(N)c(S(=O)(=O)c3ccccc3F)c2n1 [Example 187, 4-[(2R,6S)-2,6-dimethylmorpholin-4-yl]-7-(2-fluorobenzenesulfonyl)-2-methyl-5H-pyrrolo[3,2-d]pyrimidin-6-amine] |
| 37 | CCc1nc(C2=CCCCC2)c2[nH]c(N)c(S(=O)(=O)c3ccccc3)c2n1 [Example 41, 7-(benzenesulfonyl)-4-(cyclohex-1-en-1-yl)-2-ethyl-5H-pyrrolo[3,2-d]pyrimidin-6-amine] |
| 28 | Cc1nc(C2=CCCCC2)c2[nH]c(N)c(S(=O)(=O)c3ccccc3)c2n1 [Example 19, 7-(benzenesulfonyl)-4-(cyclohex-1-en-1-yl)-2-methyl-5H-pyrrolo[3,2-d]pyrimidin-6-amine] |
| 14 | Cc1nc(N2CCC(F)(F)CC2)c2[nH]c(N)c(S(=O)(=O)c3ccccc3F)c2n1 [Example 186, 4-(4,4-difluoropiperidin-1-yl)-7-(2-fluorobenzenesulfonyl)-2-methyl-5H-pyrrolo[3,2-d]pyrimidin-6-amine] |
